The text below walks through data of patent publication US11667649B2, “Heteroaromatic macrocyclic ether chemotherapeutic agents” (Nuvalent, Inc., priority 2020, dated 2023).

For this assay, the system named is TPM3-NTRK1-wt IC50 / primary target (e.g. CD74-ROS1-wt) IC50, Ba/F3 cells. Put plainly: Cell assay TRKA selectivity (TRKA potency divided by primary target potency). The format is cell-based. Particulars: for TPM3-NTRK1-wt/CD74-ROS1-G2032R: TRKA selectivity ratio: TPM3-NTRK1-wt IC50 / CD74-ROS1-G2032R IC50, Ba/F3 cells; for TPM3-NTRK1-wt/CD74-ROS1-wt: TRKA selectivity ratio: TPM3-NTRK1-wt IC50 / CD74-ROS1-wt IC50, Ba/F3 cells; for TPM3-NTRK1-wt/EML4-ALK-L1196M-G1202R: TRKA selectivity ratio: TPM3-NTRK1-wt IC50 / EML4-ALK-L1196M-G1202R IC50, Ba/F3 cells; for TPM3-NTRK1-wt/EML4-ALK-wt: TRKA selectivity ratio: TPM3-NTRK1-wt IC50 / EML4-ALK-wt IC50, Ba/F3 cells. From the text: Genes encoding CD74-ROS1 wild-type (wt), CD74-ROS1 G2032R, CD74-ROS1 S1986F, CD74-ROS1 L2026M, CD74-ROS1 D2033N, EML4-ALK wt (variant 1), EML4-ALK G1202R (variant 1), EML4-ALK L1196M/G1202R (variant 1), EML4-ALK G1202R/G1269A (variant 1), EML4-ALK G1202R/L1198F (variant 1), and TPM3-TRKA were synthesized at GeneRay, cloned into the retroviral construct pMSCV-puro (Biovector), and packaged into retroviral particles. The virus was used to infect Ba/F3 cells (RIKEN) at multiplicity of infection=1 for 1 day. Infected cells were rescued in media (RPMI-1640 with 10% fetal bovine serum and 1% streptomycin and penicillin) supplemented with mouse IL-3 (10 ng/mL) for 2 days, and stable cell lines were selected by IL-3 withdrawal and puromycin (0.8 μg/mL) for 7 days. Monoclones were selected by single-cell dilution in IL-3-free medium containing puromycin (0.8 μg/mL). Transformation of desired genes was confirmed by Sanger sequencing and western blot using the following antibodies: ROS1 (CST #3287), ALK (CST #3633), and pan-TRK (Abcam #76291).
Stable cells were plated at 1,000 cells/well (40 μL) in a 384-well plate for 1 day. Test compounds (40 nL) were then added in a 3-fold dilution series using the TECAN EVO200 liquid handler and incubated for 72 hours. Plates were equilibrated at room temperature for 15 minutes followed by addition of 40 μL CellTiter-Glo reagent (Promega). Luminescence was measured on a plate reader. Half-maximal inhibitory concentration (IC50) was calculated from percent inhibition and inhibitor concentration using four-parameter logistic regression. […] Exemplary data is given in Table 4 (nd is not determined).
TRKA selectivity was calculated by dividing a compound's TRKA potency by its primary target potency (e.g. TPM3-NTRK1-wt IC50/CD74-ROS1-wt IC50). Compound selectivity can be interpreted by binning ratio values: bin A for very high selectivity, ratio>30-fold; bin B for high selectivity, ratio>10-fold; bin C for moderate selectivity, ratio≥1; and bin D for low selectivity, ratio<1. […] (nd=not determined).

For `C[C@H]1Oc2cc(cnc2N)-c2c(C#N)ncn2Cc2cn(C)nc2-c2ccc(F)cc21` [Example 13, (19R)-22-amino-16-fluoro-10,19-dimethyl-20-oxa-4,6,10,11,23-pentaazapentacyclo[19.3.1.0^2,^6.0^8,^12.0^13,^18]pentacosa-1(24),2,4,8,11,13,15,17,21(25),22-decaene-3-carbonitrile], the TPM3-NTRK1-wt/CD74-ROS1-G2032R entry is reported as “A (bin A for very high selectivity, ratio>30-fold)”; the TPM3-NTRK1-wt/CD74-ROS1-wt result was “A (bin A for very high selectivity, ratio>30-fold)”; the TPM3-NTRK1-wt/EML4-ALK-L1196M-G1202R result was “A (bin A for very high selectivity, ratio>30-fold)”; the TPM3-NTRK1-wt/EML4-ALK-wt entry is listed as “A (bin A for very high selectivity, ratio>30-fold)”.
For the compound `C[C@H]1Oc2cc(cnc2N)-c2c(C#N)cnn2Cc2cccnc2-c2ccc(F)cc21` [Example 14, (20R)-23-amino-17-fluoro-20-methyl-21-oxa-5,6,12,24-tetraazapentacyclo[20.3.1.0^2,^6.0^8,^13.0^14,^19]hexacosa-1(25),2,4,8(13),9,11,14,16,18,22(26),23-undecaene-3-carbonitrile], the TPM3-NTRK1-wt/CD74-ROS1-G2032R entry is reported as “B (bin B for high selectivity, ratio>10-fold)”; the TPM3-NTRK1-wt/CD74-ROS1-wt entry was “A (bin A for very high selectivity, ratio>30-fold)”; the TPM3-NTRK1-wt/EML4-ALK-L1196M-G1202R result was “C (bin C for moderate selectivity, ratio≥1)”; the TPM3-NTRK1-wt/EML4-ALK-wt entry is listed as “A (bin A for very high selectivity, ratio>30-fold)”.
For the compound `C[C@H]1Oc2cc(cnc2N)-c2c(C#N)noc2Cc2cn(C)nc2-c2ccc(F)cc21` [Example 15, (19R)-22-amino-16-fluoro-10,19-dimethyl-5,20-dioxa-4,10,11,23-tetraazapentacyclo[19.3.1.0^2,^6.0^8,^12.0^13,^18]pentacosa-1(24),2(6),3,8,11,13(18),14,16,21(25),22-decaene-3-carbonitrile], the TPM3-NTRK1-wt/CD74-ROS1-G2032R entry is “A (bin A for very high selectivity, ratio>30-fold)”; the TPM3-NTRK1-wt/CD74-ROS1-wt entry is “A (bin A for very high selectivity, ratio>30-fold)”; the TPM3-NTRK1-wt/EML4-ALK-L1196M-G1202R entry was “B (bin B for high selectivity, ratio>10-fold)”; the TPM3-NTRK1-wt/EML4-ALK-wt entry is listed as “A (bin A for very high selectivity, ratio>30-fold)”.
Regarding `CCc1nnn2c1-c1cnc(N)c(c1)O[C@H](C)c1cc(F)ccc1-c1ncc(F)cc1C2` [Example 16, (20R)-3-ethyl-10,17-difluoro-20-methyl-21-oxa-4,5,6,12,24-pentaazapentacyclo[20.3.1.0^2,^6.0^8,^13.0^14,^19]hexacosa-1(25),2,4,8(13),9,11,14,16,18,22(26),23-undecaen-23-amine], the TPM3-NTRK1-wt/CD74-ROS1-G2032R result is “B (bin B for high selectivity, ratio>10-fold)”; the TPM3-NTRK1-wt/CD74-ROS1-wt entry is “A (bin A for very high selectivity, ratio>30-fold)”; the TPM3-NTRK1-wt/EML4-ALK-L1196M-G1202R entry is given as “C (bin C for moderate selectivity, ratio≥1)”; the TPM3-NTRK1-wt/EML4-ALK-wt result is “B (bin B for high selectivity, ratio>10-fold)”.
Consider `C[C@H]1Oc2cc(cnc2N)-c2c(C(F)F)cnn2Cc2cc(F)cnc2-c2ccc(F)cc21` [Example 17, (20R)-3-(difluoromethyl)-10,17-difluoro-20-methyl-21-oxa-5,6,12,24-tetraazapentacyclo[20.3.1.0^2,^6.0^8,^13.0^14,^19]hexacosa-1(25),2,4,8(13),9,11,14,16,18,22(26),23-undecaen-23-amine], for which the TPM3-NTRK1-wt/CD74-ROS1-G2032R result is recorded as “B (bin B for high selectivity, ratio>10-fold)”; the TPM3-NTRK1-wt/CD74-ROS1-wt entry is on record as “A (bin A for very high selectivity, ratio>30-fold)”; the TPM3-NTRK1-wt/EML4-ALK-L1196M-G1202R result is “D (bin D for low selectivity, ratio<1)”; the TPM3-NTRK1-wt/EML4-ALK-wt entry was “B (bin B for high selectivity, ratio>10-fold)”.
For the compound `Cc1nc(C#N)c2n1Cc1cccnc1-c1ccc(F)cc1[C@@H](C)Oc1cc-2cnc1N` [Example 18, (20R)-23-amino-17-fluoro-5,20-dimethyl-21-oxa-4,6,12,24-tetraazapentacyclo[20.3.1.0^2,^6.0^8,^13.0^14,^19]hexacosa-1(25),2,4,8(13),9,11,14,16,18,22(26),23-undecaene-3-carbonitrile], the TPM3-NTRK1-wt/CD74-ROS1-G2032R entry is recorded as “A (bin A for very high selectivity, ratio>30-fold)”; the TPM3-NTRK1-wt/CD74-ROS1-wt result is listed as “A (bin A for very high selectivity, ratio>30-fold)”; the TPM3-NTRK1-wt/EML4-ALK-L1196M-G1202R result is listed as “A (bin A for very high selectivity, ratio>30-fold)”; the TPM3-NTRK1-wt/EML4-ALK-wt result was “A (bin A for very high selectivity, ratio>30-fold)”.
With `CCc1noc2c1-c1cnc(N)c(c1)O[C@H](C)c1cc(F)ccc1-c1nn(C)cc1C2` [Example 19, (19R)-3-ethyl-16-fluoro-10,19-dimethyl-5,20-dioxa-4,10,11,23-tetraazapentacyclo[19.3.1.0^2,^6.0^8,^12.0^13,^18]pentacosa-1(24),2(6),3,8,11,13,15,17,21(25),22-decaen-22-amine], the TPM3-NTRK1-wt/CD74-ROS1-G2032R result is listed as “A (bin A for very high selectivity, ratio>30-fold)”; the TPM3-NTRK1-wt/CD74-ROS1-wt result is on record as “A (bin A for very high selectivity, ratio>30-fold)”; the TPM3-NTRK1-wt/EML4-ALK-L1196M-G1202R entry was “C (bin C for moderate selectivity, ratio≥1)”; the TPM3-NTRK1-wt/EML4-ALK-wt entry is given as “A (bin A for very high selectivity, ratio>30-fold)”.
On to `CCn1nnc2c1-c1cnc(N)c(c1)O[C@H](C)c1cc(F)ccc1-c1nn(C)cc1C2` [Example 20, (19R)-3-ethyl-16-fluoro-10,19-dimethyl-20-oxa-3,4,5,10,11,23-hexaazapentacyclo[19.3.1.0^2,^6.0^8,^12.0^13,^18]pentacosa-1(24),2(6),4,8,11,13,15,17,21(25),22-decaen-22-amine], for which the TPM3-NTRK1-wt/CD74-ROS1-G2032R result was “A (bin A for very high selectivity, ratio>30-fold)”; the TPM3-NTRK1-wt/CD74-ROS1-wt entry is “A (bin A for very high selectivity, ratio>30-fold)”; the TPM3-NTRK1-wt/EML4-ALK-L1196M-G1202R entry was “B (bin B for high selectivity, ratio>10-fold)”; the TPM3-NTRK1-wt/EML4-ALK-wt entry is “A (bin A for very high selectivity, ratio>30-fold)”.
In the case of `C[C@H]1Oc2cc(cnc2N)-c2c(C#N)nn(C)c2Cc2cn(C)nc2-c2ccc(F)cc21` [Example 21, (19R)-22-amino-16-fluoro-5,10,19-trimethyl-20-oxa-4,5,10,11,23-pentaazapentacyclo[19.3.1.0^2,^6.0^8,^12.0^13,^18]pentacosa-1(24),2(6),3,8,11,13,15,17,21(25),22-decaene-3-carbonitrile], the TPM3-NTRK1-wt/CD74-ROS1-G2032R result is given as “A (bin A for very high selectivity, ratio>30-fold)”; the TPM3-NTRK1-wt/CD74-ROS1-wt result was “A (bin A for very high selectivity, ratio>30-fold)”; the TPM3-NTRK1-wt/EML4-ALK-L1196M-G1202R result was “B (bin B for high selectivity, ratio>10-fold)”; the TPM3-NTRK1-wt/EML4-ALK-wt entry is reported as “A (bin A for very high selectivity, ratio>30-fold)”.
On to `C[C@H]1Oc2cc(cnc2N)-c2c(cnn2CC(F)F)Cc2cn(C)nc2-c2ccc(F)cc21` [Example 22, (19R)-3-(2,2-difluoroethyl)-16-fluoro-10,19-dimethyl-20-oxa-3,4,10,11,23-pentaazapentacyclo[19.3.1.0^2,^6.0^8,^12.0^13,^18]pentacosa-1(24),2(6),4,8,11,13,15,17,21(25),22-decaen-22-amine], for which the TPM3-NTRK1-wt/CD74-ROS1-G2032R entry was “A (bin A for very high selectivity, ratio>30-fold)”; the TPM3-NTRK1-wt/CD74-ROS1-wt result is listed as “A (bin A for very high selectivity, ratio>30-fold)”; the TPM3-NTRK1-wt/EML4-ALK-L1196M-G1202R result is “A (bin A for very high selectivity, ratio>30-fold)”; the TPM3-NTRK1-wt/EML4-ALK-wt result is reported as “A (bin A for very high selectivity, ratio>30-fold)”.
For the compound `CCc1nnn2c1-c1cnc(N)c(c1)O[C@H](C)c1cc(F)ccc1-c1nn(C)cc1C2` [Example 23, (19R)-3-ethyl-16-fluoro-10,19-dimethyl-20-oxa-4,5,6,10,11,23-hexaazapentacyclo[19.3.1.0^2,^6.0^8,^12.0^13,^18]pentacosa-1(24),2,4,8,11,13,15,17,21(25),22-decaen-22-amine], the TPM3-NTRK1-wt/CD74-ROS1-G2032R entry was “A (bin A for very high selectivity, ratio>30-fold)”; the TPM3-NTRK1-wt/CD74-ROS1-wt entry is listed as “A (bin A for very high selectivity, ratio>30-fold)”; the TPM3-NTRK1-wt/EML4-ALK-L1196M-G1202R entry is “C (bin C for moderate selectivity, ratio≥1)”; the TPM3-NTRK1-wt/EML4-ALK-wt entry was “A (bin A for very high selectivity, ratio>30-fold)”.
